In patent US20230212571A1, “COMPOSITIONS AND METHODS FOR DELIVERING POLYNUCLEOTIDES” (NeOnc Technologies, Inc., priority 2020, published 2023):

Columns and labels:
[1] = test system: Mgp^−/− mouse model of AVM; assay: In vivo computed tomography angiography (CTA) of brain vasculature
Protocol: In vivo ultra-high-resolution computed tomography angiography (CTA) was performed to study changes in neurovascular architecture like methods described previously. (Mukundan S, Jr., […], Badea C T, et al. A liposomal nanoscale contrast agent for preclinical CT in mice. AJR Am J Roentgenol. 2006; 186(2):300-307) ([…], Rendon D, et al. Ultra-High-Resolution In vivo Computed Tomography Imaging of Mouse Cerebrovasculature Using a Long Circulating Blood Pool Contrast Agent. Scientific reports. 2015; 5:10178). Briefly, mice were anesthetized using 3-4% isoflurane, positioned on a CT cradle and maintained at 1-1.5% isoflurane delivered via nose cone. Mice were intravenously injected a long circulating liposomal-iodine blood pool contrast agent (2.2 g/kg body weight) for CTA^8,9 and scanned on a small animal micro-CT scanner Rigaku CT Lab GX90-1-E. The following scan parameters were used: High Resolution Scan Mode, 70 kVp, 114 uA, 10 mm FOV, 1440 projections, 20 μm voxel size, 14 min scan time. All animal protocols were approved by the USC's Institutional Animal Care and Use Committee (IACUC) and strictly adhered to. MiR-18a was co-administered with Ago-2 (0.0008 nmol/mouse) to increase stability and cellular uptake^9 (Ferreira R, Santos T, Amar A, et al. Argonaute-2 promotes miR-18a entry in human brain endothelial cells. J Am Heart Assoc. 2014; 3(3):e000968). (FIG. 9). Details about randomization, blinding, group size and inclusion/exclusion criteria have been included in Methods. […] The vascular data was quantified using ImageJ. […] The pixels were analyzed as particles and normalized to results from the wildtype mice (WT, Mgp^+/+).

AVM-BEC [2] = assay: Human Notch Signaling Pathway PCR array in AVM-BEC; format: cell-based
Protocol: MiR-18a (hsa-miR-18a-5p, 40 nM, Dharmacon) or a scramble microRNA (40 nM, Dharmacon) in nuclease-free water was added with argonaute 2 (Ago-2, 0.4 nM, Abcam) as the microRNA carrier and stabilizer^9. (Ferreira R, Santos T, Amar A, et al. Argonaute-2 promotes miR-18a entry in human brain endothelial cells. J Am Heart Assoc. 2014; 3(3):e000968). No transfection reagent was used with miR-18a or scramble microRNA treatments. Recombinant human TSP-1 (R&D Systems) stock solution was prepared in PBS and further diluted in culture medium to be used at a final concentration of 1000 ng/mL. Cells were treated during 24 h for mRNA and 48 h for protein expression studies. NEO100 (NeOnc Technologies) stock was prepared in DMSO and used immediately or stored at −20° C.
The extraction and analysis of total mRNA and microRNAs were described^9,13. (Ferreira R, Santos T, Amar A, et al. Argonaute-2 promotes miR-18a entry in human brain endothelial cells. J Am Heart Assoc. 2014; 3(3):e000968) (Marín-Ramos N I, Jhaveri N, Thein T Z, Fayngor R A, Chen T C, Hofman F M. NEO212, a conjugate of temozolomide and perillyl alcohol, blocks the endothelial-to-mesenchymal transition in tumor-associated brain endothelial cells in glioblastoma. Cancer Lett. 2018; 442:170-180). The Human Notch Signaling Pathway RT^2 Profiler PCR Array (Qiagen) was used to analyze the expression of 84 genes related to Notch signaling. For mRNA studies, […] (B2M) was measured for sample normalization. The primer sequences were included in Table 2. For microRNA analysis, RNU44 and U6 snRNA TaqMan microRNA Control Assays were used for normalization of human and mice samples, respectively.

AVM-BEC [3] = details: previous results from our laboratory (Ferreira 2014); cited from earlier work

## hsa-miR-18a-5p (UAGGUGCAUCUAGUGCAGAUAG; chemistry not given here; listed as Homo sapiens) [small non-coding RNA molecule involved in post-transcriptional regulation of gene expression; Dharmacon]
[1]; 0.08 nmol/mouse IN daily for 2-weeks with Ago-2
  AzACA vessel density compared to healthy wildtype mice: 92-94%
[1]; Mgp^−/− mice, IN 2-weeks
  brain vasculature and leakage (CTA): normalized
  calcifications found in carotids: no effect
AVM-BEC [2]; FIG. 13
  ADAM10 mRNA expression: downregulated
AVM-BEC [2]; among the affected genes
  Notch-related genes downregulated: 50 genes
AVM-BEC [2]; of 84 Notch-related genes
  Notch-related genes affected (fold change>2): 68 genes
AVM-BEC [3]
  TSP-1 release by AVM-BECs (ELISA of cell supernatants): induces TSP-1 release
